Data published in US20090088380A1, “GHRH ANALOGS AND THERAPEUTIC USES THEREOF” (priority 2007, published 2009).
“And” between values parts separate entries of the source, which are not always exact repeats. Equal values may be shown once. Non-standard residues stand in square brackets, D forms with d. Residues, ends and D or L forms follow the SMILES beside them.

Columns and labels:
in vivo = settings: Beagle, dog
Procedure: No mortality, adverse clinical sign, effects on body weight, food consumption, opthalmology, haematology, coagulation, clinical chemistry, urinalysis or organ weights were noted following the dosing or recovery periods. Microscopic findings at the injection sites were noted among treated animals, however, the changes were reversed following the recovery period. A no adverse effect level for this study was determined to be 3 mg/kg.

endogenous GH secretion = experiment: Phase II CKD: 24-hour GH profile and deconvolution; format: in vivo, human
Procedure: Blood samples for assessment of GH secretion had to be taken over 24 hours because the release of endogenous GH was pulsatile and not consistent throughout the day. Much of endogenous GH release is closely coupled to periods of slow-wave sleep, and the bulk of GH secretion usually occurs between midnight and 4 am. […] To document clearly the effect of the GHRH(1-29)NH2 synthetic analog on endogenous GH secretion, the following protocol had been designed: first, baseline endogenous GH secretion was assessed on Day 0 by sampling blood every 20 minutes for 20 hours and every 10 minutes for 4 hours. At the end of this sampling period (in the afternoon of Day 1), the first injection of the GHRH(1-29)NH2 synthetic analog was given. At the end of the 4-week treatment period (Day 28), GH secretion was reassessed by another 24-hour secretion profile. This profile started at 8:30 am with the morning injection of the GHRH(1-29)NH2 synthetic analog. Blood was collected every 10 minutes for the first 4 hours, followed by sampling every 20 minutes for the next 20 hours; this period included the afternoon injection of the GHRH(1-29)NH2 synthetic analog. In this way, it was possible to assess the evolution of both the pituitary's immediate GHRH response and that of time-integrated 24-hour GH secretion over extended treatment.
On Day 0 (baseline) and Day 28, subjects commenced 24-hour sampling at 10 and 20-minute intervals to construct a GH profile. […] The cannula was flushed with heparin-saline solution after each blood withdrawal to prevent clotting. Immediately before each blood collection, the residual heparin-saline volume instilled in the cannula was withdrawn with 0.5 mL blood in a separate syringe. This volume was reinjected after collection of the sample used for GH analysis.
At the baseline visit, blood sampling for the 24-hour GH profile commenced on Day 0 by taking samples at 20-minute intervals for 20 hours. Immediately at the end of this period, on the morning of Day 1, samples were taken at 10-minute intervals for 4 hours. The first dose of investigational product was not given before the end of the 24-hour GH profile period. On Day 28, samples were taken pre-dose, at 10-minute intervals for the first 4 hours (at the same time of day as the 4-hour period on Day 1) and at 20-minute intervals thereafter for a further 20 hours.
Samples were analysed for GH at the Department of Nephrology, Endocrinology and Metabolic Diseases, Silesian University School of Medicine, Katowice, Poland using a commercial kit.

[1] = GH deconvolution, ITT, Baseline
[2] = GH deconvolution, ITT, Day 28, vs placebo

CC[C@H](C)[C@H](NC(=O)[C@H](C)NC(=O)[C@H](CC(=O)O)NC(=O)[C@@H](C)NC(=O)[C@@H](N)Cc1ccc(O)cc1)C(=O)N[C@@H](Cc1ccccc1)C(=O)N[C@H](C(=O)N[C@@H](CC(N)=O)C(=O)N[C@@H](CO)C(=O)N[C@H](Cc1ccc(O)cc1)C(=O)N[C@@H](CCCNC(=N)N)C(=O)N[C@@H](CCCCN)C(=O)N[C@H](C(=O)N[C@@H](CC(C)C)C(=O)N[C@H](C)C(=O)N[C@@H](CCC(N)=O)C(=O)N[C@@H](CC(C)C)C(=O)N[C@@H](CO)C(=O)N[C@@H](C)C(=O)N[C@@H](CCCNC(=N)N)C(=O)N[C@@H](CCCCN)C(=O)N[C@@H](CCCCN)C(=O)N[C@@H](CC(C)C)C(=O)N[C@@H](CCC(N)=O)C(=O)N[C@@H](CC(=O)O)C(=O)N[C@H](C(=O)N[C@@H](CCSC)C(=O)N[C@@H](CO)C(=O)N[C@@H](CCCNC(=N)N)C(N)=O)[C@@H](C)CC)C(C)C)[C@@H](C)O [GHRH analog #5, [D-Ala^2, D-Tyr^10, D-Ala^15, Lys^22] hGHRH(1-29)-NH2] (H-Y[dA]DAIFTNS[dY]RKVL[dA]QLSARKKLQDIMSR-NH2)
NOAEL at 672 h (in vivo): 3 mg/kg
1st component half-life: median (endogenous GH secretion; [1]): 6 min
2nd component half-life: median (endogenous GH secretion; [1]): 16 min
% pulsatile secretion rate: mean (SD) (endogenous GH secretion; [1]): 79.02 (9.09) %
Basal secretion rate: median (endogenous GH secretion; [1]): 27 mU/L/24 h
Inter-pulse regularity: mean (SD) (endogenous GH secretion; [1]): 2.35 (0.63)
Mass per pulse: mean (SD) (endogenous GH secretion; [1]): 11.30 (7.02) mU/L
Mean pulse frequency (per 24 h): mean (SD) (endogenous GH secretion; [1]): 8.09 (2.81) per 24 h
Number of pulses: mean (SD) (endogenous GH secretion; [1]): 8.8 (3.2)
Pulsatile secretion rate: median (endogenous GH secretion; [1]): 100 mU/L/24 h
Time from onset to peak of burst: mean (SD) (endogenous GH secretion; [1]): 32.8 (3.9) min
Total secretion rate: median (endogenous GH secretion; [1]): 120 mU/L/24 h
1st component half-life: median (endogenous GH secretion; GH deconvolution, ITT, Day 28): 2 min
2nd component half-life: comparison vs placebo (endogenous GH secretion; GH deconvolution, ITT, Day 28): 4.8
2nd component half-life: median (endogenous GH secretion; GH deconvolution, ITT, Day 28): 26 min
% pulsatile secretion rate: comparison vs placebo (endogenous GH secretion; GH deconvolution, ITT, Day 28): −0.4
% pulsatile secretion rate: mean (SD) (endogenous GH secretion; GH deconvolution, ITT, Day 28): 71.27 (16.24) %
Basal secretion rate: median (endogenous GH secretion; GH deconvolution, ITT, Day 28): 98 mU/L/24 h
Inter-pulse regularity: comparison vs placebo (endogenous GH secretion; GH deconvolution, ITT, Day 28): −0.0
Inter-pulse regularity: mean (SD) (endogenous GH secretion; GH deconvolution, ITT, Day 28): 1.95 (0.30)
Mass per pulse: comparison vs placebo (endogenous GH secretion; GH deconvolution, ITT, Day 28): 26.5
Mass per pulse: mean (SD) (endogenous GH secretion; GH deconvolution, ITT, Day 28): 43.88 (36.16) mU/L
Mean pulse frequency (per 24 h): mean (SD) (endogenous GH secretion; GH deconvolution, ITT, Day 28): 9.07 (3.49) per 24 h
Mean pulse frequency: comparison vs placebo (endogenous GH secretion; GH deconvolution, ITT, Day 28): 0.8
Number of pulses: comparison vs placebo (endogenous GH secretion; GH deconvolution, ITT, Day 28): 0.3
Number of pulses: mean (SD) (endogenous GH secretion; GH deconvolution, ITT, Day 28): 9.7 (3.7)
Pulsatile secretion rate: median (endogenous GH secretion; GH deconvolution, ITT, Day 28): 378 mU/L/24 h
Time from onset to peak of burst: comparison vs placebo (endogenous GH secretion; GH deconvolution, ITT, Day 28): −4.5
Time from onset to peak of burst: mean (SD) (endogenous GH secretion; GH deconvolution, ITT, Day 28): 27.3 (4.7) min
Total secretion rate: median (endogenous GH secretion; GH deconvolution, ITT, Day 28): 495 mU/L/24 h
Basal secretion rate: comparison or ratio of means (endogenous GH secretion; [2]): 2.53
Pulsatile secretion rate: comparison or ratio of means (endogenous GH secretion; [2]): 2.81
Total secretion rate: comparison or ratio of means (endogenous GH secretion; [2]): 2.72
GH AUC first 4 hours: increase from baseline to day 28 (endogenous GH secretion; ITT): 1137%
GH AUC at 4 h: median (endogenous GH secretion; ITT, Baseline): 315 μIU/mL × min
GH AUC at 24 h: median (endogenous GH secretion; ITT, Baseline): 3473 μIU/mL × min
GH SD at 4 h: median (endogenous GH secretion; ITT, Baseline): 1.0 μIU/mL
GH SD at 24 h: median (endogenous GH secretion; ITT, Baseline): 2.9 μIU/mL
GH concentration at 4 h: median (endogenous GH secretion; ITT, Baseline): 1.3 μIU/mL
GH concentration at 24 h: median (endogenous GH secretion; ITT, Baseline): 2.1 μIU/mL
Mean concentration of GH secreted during the first 4 hours (endogenous GH secretion; ITT, Baseline): 1.72 μIU/ml
GH AUC at 4 h: median (endogenous GH secretion; ITT, Day 28): 3891 μIU/mL × min
GH AUC at 24 h: difference vs placebo (endogenous GH secretion; ITT, Day 28): 11585 μIU/mL × min
GH AUC at 24 h: median (endogenous GH secretion; ITT, Day 28): 16753 μIU/mL × min
GH SD at 4 h: median (endogenous GH secretion; ITT, Day 28): 11.6 μIU/mL
GH SD at 24 h: median (endogenous GH secretion; ITT, Day 28): 13.3 μIU/mL
GH concentration at 4 h: median (endogenous GH secretion; ITT, Day 28): 16.2 μIU/mL
GH concentration at 24 h: comparison vs placebo (endogenous GH secretion; ITT, Day 28): 9.5
GH concentration at 24 h: median (endogenous GH secretion; ITT, Day 28): 12.5 μIU/mL
GH AUC at 4 h: ratio (endogenous GH secretion; ITT, Day 28, vs placebo): 9.5 and 9.49
GH SD at 4 h: comparison or ratio of means (endogenous GH secretion; ITT, Day 28, vs placebo): 6.97
GH SD at 24 h: comparison or ratio of means (endogenous GH secretion; ITT, Day 28, vs placebo): 3.92
GH concentration at 4 h: ratio (endogenous GH secretion; ITT, Day 28, vs placebo): 9.50
Mean GH concentration first 4 hours: increase (endogenous GH secretion; ITT, baseline to day 28): 1136%
Mean concentration of GH secreted during the first 4 hours (endogenous GH secretion; ITT, day 28): 21.26 μIU/ml
Mean amount of GH secreted in 24 hours (AUC) (endogenous GH secretion; baseline): 3770.62 μIU/ml×min
Mean basal GH secretion rate (endogenous GH secretion; baseline): 26.9 mU/L/24 h
Mean concentration of GH (endogenous GH secretion; baseline): 2.49 μIU/ml
Mean 24-hour GH AUC: increase (endogenous GH secretion; baseline to day 28): 393%
Mean amount of GH secreted in 24 hours (AUC) (endogenous GH secretion; day 28): 18579.9 μIU/ml×min
